{
  "source": "patent US20250275968A1",
  "about": "“INHIBITORS OF TAU PROTEINS” (DEUTSCHES ZENTRUM FÜR NEURODEGENERATIVE ERKRANKUNGEN E.V., priority 2022, published 2025)",
  "key": {"[1]": {"tested_on": "HEK293T biosensor cells expressing the human tau repeat domain (RD) harboring the P301L/V337M mutation (TauRD^LM-GFP)", "assay": "HEK biosensor cell tau seeding assay", "format": "cell-based", "conditions": "for compound concentration up to which total amount of cells remained close to 100% (low toxicity): HEK biosensor cells, relative to vehicle (DMSO)", "experimental": "Compound stock solutions were prepared as 10 mM compound in DMSO.\nHEK293T biosensor cells expressing the human tau repeat domain (RD) harboring the P301L/V337M mutation and fused to a C-terminal GFP tag (named TauRD^LM-GFP) were engineered to probe Tau seeding in cellula (Reference: Liu, S., Hossinger, A., Heumüller, S E. et al. Highly efficient intercellular spreading of protein misfolding mediated by viral ligand-receptor interactions. Nat Commun 12, 5739 (2021). https://doi.org/10.1038/s41467-021-25855-2). HEK cells expressing the P301L human full-length Tau, C-terminally tagged with GFP were incubated with pre-sonicated hTau40^P301L fibrils to induce Tau aggregate formation. Cells were harvested and the resulting cell lysate was used to seed Tau aggregation in further experiments with HEK TauRD^LM-GFP cells.\nIn a typical seeded assay, HEK cells were incubated with cell lysate, compounds (0-40 μM) and lipofectamine for 22-48 hours. Negative control experiments in the absence of compounds (only with vehicle DMSO) and in the presence of cell lysate were performed in parallel.\nDose response curves were constructed by quantifying the number of cells with aggregates for each compound concentration. The curves were fitted with a sigmoid function using Graphpad PRISM version 8. The inhibitory concentration at 50% activity (IC50) was determined for each compound."}, "[2]": {"biological_target": "T1, 2N4R Tau fibrils (Homo sapiens, UniProt P10636)", "T1 construct": "Full-length 2N4R tau was incubated with Osimertinib mesylate", "T1 sequence (P10636 1-441 isoform P10636-8)": "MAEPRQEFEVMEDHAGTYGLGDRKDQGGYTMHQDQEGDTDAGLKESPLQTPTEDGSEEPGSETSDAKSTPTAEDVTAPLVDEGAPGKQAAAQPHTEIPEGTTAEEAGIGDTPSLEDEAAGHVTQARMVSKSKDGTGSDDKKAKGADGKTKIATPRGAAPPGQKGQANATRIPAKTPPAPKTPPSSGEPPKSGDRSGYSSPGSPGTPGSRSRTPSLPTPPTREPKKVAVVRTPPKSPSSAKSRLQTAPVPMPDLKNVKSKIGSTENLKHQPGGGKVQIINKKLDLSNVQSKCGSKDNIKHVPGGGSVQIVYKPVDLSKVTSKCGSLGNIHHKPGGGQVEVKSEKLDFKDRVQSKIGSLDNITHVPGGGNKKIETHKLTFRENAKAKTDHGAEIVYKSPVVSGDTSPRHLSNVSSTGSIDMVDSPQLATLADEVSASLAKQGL", "assay": "Saturation transfer difference (STD) NMR with tau fibrils", "format": "binding", "conditions": "48-fold excess of compound, 100 mM NaCl, 2.5% (v/v) DMSO, pH 6.8, 37° C.", "experimental": "2N4R Tau fibrils were prepared using the aggregation procedure described in the section in vitro assay 1 without Thioflavin T. The mole ratio of “free” compound to fibrils was 48:1 (corresponding to a total compound concentration of 250 μM and a total fibril concentration of 5 μM Tau). The NMR samples were prepared in 50 mM sodium phosphate with 100 mM NaCl and 2.5% (v/v) DMSO at pH 6.8. The spectra were recorded at 37° C. using a Bruker 700 MHz spectrometer equipped with a triple resonance cryoprobe. 1D ^1H-NMR STD spectra were acquired in an interleaved manner, alternating between off-resonance irradiation at 60 ppm and on-resonance irradiation at −2 ppm."}, "[3]": {"biological_target": "T2, 15N-labeled 2N4R tau (Homo sapiens, UniProt P10636)", "T2 construct": "Full-length 2N4R tau was incubated with Osimertinib mesylate", "T2 sequence (P10636 1-441 isoform P10636-8)": "as above", "assay": "SOFAST-HMQC NMR binding to monomeric tau", "conditions": "18 μM tau, 50 mM sodium phosphate pH 6.8, 16 h at 37° C., spectra at 5° C.", "excerpt": "(A) Overlaid spectra of 2N4R tau with (black) and without (grey) a 100-fold molar excess of Osimertinib mesylate.\nTo obtain residue-specific information about the interaction between Tau and the compounds, ^1H-^15N correlation spectra of 2N4R Tau were monitored over the course of a titration with increasing amounts of compound. The ^1H-^15N SOFAST-HMQC (Reference: Schanda, P., Kupce, E. & Brutscher, B. SOFAST-HMQC experiments for recording two-dimensional heteronuclear correlation spectra of proteins within a few seconds. J. Biomol. NMR 33, 199-211 (2005)) spectra of [U-^15N]-Tau were acquired at 5° C. on a Bruker 800 MHz spectrometer equipped with a triple-resonance cryoprobe. Tau samples (18-25 μM) were prepared in NMR buffer containing 10% (v/v) D2O, and with compound concentrations that corresponded to Tau:compound mole ratios of 1:10 and 1:100. All NMR samples were incubated overnight (˜16 h) at 37° C. prior to spectral acquisition. Tau amide assignments were taken from a previous study (Reference: Mukrasch, M. et al. Structural polymorphism of 441-residue tau at single residue resolution. PLoS Biol. 7, e34 (2009)). However, because previous assignments were obtained using a Tau sample prepared in the presence of reducing agents, some amide resonances belonging to the repeat region of Tau (close to C291 and C322) were not unambiguously transferred to the SOFAST-HMQC spectra acquired under oxidizing conditions. Therefore, to obtain nearly complete backbone assignments in the repeat region, 3D HNCA, 3D HNCOCA, and 3D CBCACONH spectra were recorded for a [U-^13C,^15N]-4R Tau (K18 construct) sample prepared under the same buffer condition. The weighted, normalized chemical shift perturbations (CSP) were calculated as CSP=√[0.5 [(Δδ H)^2+(Δδ N)^2/25]. NMR signal intensity ratios, I/I0 (where I is the peak intensity of Tau amide backbone resonances in the presence of the compounds, and I0 is the peak intensity in the absence of the compounds), were calculated for each titration point."}, "[4]": {"biological_target": "T3, 2N4R tau aggregates (Homo sapiens, UniProt P10636)", "T3 construct": "Full-length 2N4R tau was incubated with Osimertinib mesylate", "T3 sequence (P10636 1-441 isoform P10636-8)": "as above", "assay": "Dissolution of preformed 2N4R tau fibrils (ThT fluorescence, TEM)", "format": "biochemical", "conditions": "compounds added to tau fibrils after about 40 h; tau monomer:Compound 1:3 and 1:10", "experimental": "(A) ThT fluorescence curves monitoring tau aggregation. tau fibrillization reached a saturation point within about 40 h, then compounds or buffer (Reference) were added to tau fibrils (tau monomer:Compound mole ratios 1:3 and 1:10). The experiment was performed in duplicate. […] Statistically significant differences were determined by one-way ANOVA with Dunnett's multiple comparison test. Significant differences corresponding to p≤0.0002(***) and p≤0.0001(****) are indicated. […] Scale bars are 500 nm. […] The dotted line corresponds to one standard deviation above the Reference value.\n(§1) To prepare the Tau fibril seeds by de novo aggregation, 2N4R Tau at a monomer concentration of 25 μM was diluted in aggregation buffer. The working concentration of TCEP in the aggregation mixture was <25 μM after dilution of the stock. To this mixture, Thioflavin T (ThT) was added to a final concentration of 50 μM. A total volume of 100 μL of the Tau-ThT mixture was incubated in a well of a 96-well microplate (Greiner Bio-one), in the presence of two polytetrafluoroethylene beads. The microplate was subjected to a program implemented in a Tecan Spark plate reader that involved incubating at 37° C., with intervals of double orbital shaking and ThT fluorescence emission measurement. The excitation wavelength for ThT was set as 430 nm and the emission wavelength was 485 nm. Details of this plate reader program were published previously (Reference: Chakraborty, P. et al. Co-factor-free aggregation of tau into seeding-competent RNA-sequestering amyloid fibrils. Nat. Commun. 12, 4231 (2021)). […] The fibril-containing mixture collected from the microplate served as a seeding mixture for the subsequent aggregation assays.\nFibril samples were negative stained using glow discharged 400 mesh carbon-coated copper grids. After staining using a 1% uranyl acetate solution, images were acquired on a Talos L120C transmission electron microscope (Thermo Fisher, Eindhoven, The Netherlands)."}, "[5]": {"tested_on": "tau-induced degeneration of Drosophila eyes (GMR-Gal4/WT tau)", "assay": "Drosophila neurodegeneration model (eye degeneration)", "format": "in vivo", "conditions": "GMR-Gal4/WT tau flies treated in food from larvae stage to adult stage", "experimental": "Stock solutions of individual compounds were prepared by dissolving 10 mg of the compound in 100 μl of 100% DMSO. Osimertinib, Osimertinib mesylate and AZ7550 mesylate were orally fed to the flies by mixing them with food. The final concentration of each compound, which was used for treating the Drosophila, was derived on the basis of recommended concentrations for human use (reference concentration) based on body weight.\nWe have used three concentrations for each compound. One was equal to the reference concentration, and two were higher than the reference concentration. Final concentrations of different compounds mixed with fly food are: Osimertinib mesylate, […]; Osimertinib, […]; AZ 7550 mesylate, 10 µM and 20 µM. After hatching, first instar larvae were transferred onto the food containing one of the compounds. Food mixed with drug at required concentration was replaced with fresh food every 48 h.\nLight microscopy was performed after mounting the fly heads on the glass slide using a double-sided adhesive tape. Full-eye images were captured with the help of an Infinity Analyze camera attached to an Olympus SZX7 microscope with a halogen light source. Total eye surface area and degenerated eye surface area were marked and calculated with Infinity Analyze software (Lumenera corporation). Percentage of degenerated area was calculated and plotted using GraphPad Prism 8.\nAfter the eclosion, treated and control flies (2-3 days old) were fixed in 1% formaldehyde for two hours, followed by serial dehydration steps of 12 hrs each in 25%, 50%, 75% and 100% ethanol were carried out. Flies were stored in 100% ethanol and dried with CPD before mounting on the stab for imaging. Eye Images were captured at 150× and analyzed using Infinity Analyze software."}, "[6]": {"biological_target": "T4, 2N4R tau (Homo sapiens, UniProt P10636)", "T4 construct": "Full-length 2N4R tau was incubated with Osimertinib mesylate", "T4 sequence (P10636 1-441 isoform P10636-8)": "as above", "assay": "In vitro seeded aggregation/fibrillization assay of 2N4R tau (ThT fluorescence)", "format": "biochemical", "experimental": "Aggregation of 2N4R Tau was performed using a previously published co-factor-free aggregation protocol, with a few modifications (Reference: Chakraborty, P. et al. Co-factor-free aggregation of tau into seeding-competent RNA-sequestering amyloid fibrils. Nat. Commun. 12, 4231 (2021)). Aggregation experiments used the Tau protein stock prepared in 25 mM HEPES pH 7.4, 1 mM TCEP. Stocks of compounds were prepared in aggregation buffer (25 mM HEPES, 10 mM KCl, 5 mM MgCl2, pH 7.2) or in DMSO (10 mM compound).\nas §1\nSeeded aggregation assays were performed as described above but with 1.0% of the well volume occupied by the seeding mixture sonicated for 1 minute. The assays were performed in the presence and absence of compounds, and working concentrations ranged from 0-250 μM compound.\nAnalyses of the fluorescence curves were performed using Graphpad PRISM version 8. Fluorescence data were fit to a sigmoid function. The number of hours corresponding to half-maximal ThT Fluorescence™ as well as the span of fluorescence intensity (Span) were determined for each sigmoid curve. Statistically significant differences were determined by one-way ANOVA analysis with Dunnett's multiple comparison test or unpaired t-test."}, "[7]": {"biological_target": "T5, tau(244-372, 13818 Da) (Homo sapiens, UniProt P10636)", "T5 construct": "comprising residues 244-372 of 2N4R Tau", "T5 sequence (P10636 561-689)": "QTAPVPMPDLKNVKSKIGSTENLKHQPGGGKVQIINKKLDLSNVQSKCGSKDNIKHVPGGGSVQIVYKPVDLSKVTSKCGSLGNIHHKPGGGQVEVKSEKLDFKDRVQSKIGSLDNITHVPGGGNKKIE", "assay": "ESI-MS covalent modification of tau", "format": "binding", "experimental": "This analysis was performed using the 4R Tau construct (K18 construct, 13818 Da) comprising residues 244-372 of 2N4R Tau. Compounds (330 μM) were incubated with 4R Tau (65 μM) for 16 h at 37° C. in 10 mM ammonium bicarbonate at pH 7.0. The compound/4R Tau mixtures were injected into an LC system (ACQUITY) coupled to a single quadrupole mass detection system (SQ Detector 2, Waters) with diode-array detectors (DAD). The DAD spectrum covers wavelengths of 210-400 nm. Components of the compound-4R Tau mixture were separated using a BioResolve RP mAb column (Waters) with a gradient of 5-95% buffer B (buffer A is 0.1% TFA in water and buffer B is 0.1% TFA in acetonitrile). Covalent modification of 4R Tau corresponded to mass additions of 500 Da (Osimertinib) and 486 Da (AZ7550 or AZ5104)."}},
  "note": "Structures can show the parent of a compound that is named as a salt.",
  "data": [
    {"smiles": "C=CC(=O)Nc1cc(Nc2nccc(-c3cn(C)c4ccccc34)n2)c(OC)cc1N(C)CCNC", "note": "[AZ7550 hydrochloride, N-[4-methoxy-5-[4-(1-methyl-1H-indol-3-yl)-2-pyrimidinyl]amino]-2-[methyl[2-(methylamino)ethyl]amino]phenyl]-2-Propenamide hydrochloride]", "values": [
      {"measurement": "compound concentration up to which total amount of cells remained close to 100% (low toxicity)", "setting": "[1]", "result": "about 5.0 μM"},
      {"measurement": "STD effect with tau fibrils (fibril binding epitopes)", "setting": "[2]", "result": "Protons showing STD effects"},
      {"measurement": "binding to tau (NMR spectroscopy)", "setting": "[3]", "result": "reveals binding"},
      {"measurement": "dissolution of 2N4R tau aggregates (reduction of ThT fluorescence intensity)", "setting": "[4]", "result": "partially dissolve"}
    ]},
    {"smiles": "C=CC(=O)Nc1cc(Nc2nccc(-c3cn(C)c4ccccc34)n2)c(OC)cc1N(C)CCNC", "note": "[AZ7550 mesylate, N-[4-methoxy-5-[[4-(1-methyl-1H-indol-3-yl)-2-pyrimidinyl]amino]-2-[methyl[2-(methylamino)ethyl]amino]phenyl]-2-Propenamide]", "values": [
      {"measurement": "tau-induced degeneration of Drosophila eyes (percent degeneration, light microscopy)", "setting": "[5]", "result": "rescue tau-induced degeneration of Drosophila eyes"}
    ]},
    {"smiles": "C=CC(=O)Nc1cc(Nc2nccc(-c3cn(C)c4ccccc34)n2)c(OC)cc1N(C)CCNC", "note": "[Compound 2]", "values": [
      {"measurement": "In vitro seeded aggregation/fibrillization of full-length tau (ThT fluorescence curves)", "setting": "[6]; 2N4R tau, various formulations", "result": "inhibited in a dose-dependent manner"},
      {"measurement": "covalent modification of cysteines in tau (ESI-MS)", "setting": "[7]", "result": "confirms covalent modification of cysteines"}
    ]},
    {"smiles": "C=CC(=O)Nc1cc(Nc2cc(-c3cn(C)c4ccccc34)nc(OC)n2)c(OC)cc1N(C)CCN(C)C", "note": "[Compound 9]", "values": [
      {"measurement": "compound concentration up to which total amount of cells remained close to 100% (low toxicity)", "setting": "[1]", "result": "about 4.0 μM"}
    ]},
    {"smiles": "C=CC(=O)Nc1cc(COc2cc(-c3cn(C)c4ccccc34)ccn2)ccc1N1CCCC1", "note": "[Compound 31]", "values": [
      {"measurement": "efficacy of aggregation delay compared to Compound 1", "setting": "[6]; 1:3 Tau:compound mole ratio, 2.5% (v/v) DMSO", "result": "notably more efficacious"},
      {"measurement": "normalized Tm, extent of aggregation delay", "setting": "[6]; 1:3 Tau:compound mole ratio, 2.5% (v/v) DMSO, at least 3 replicates", "result": "significant delay of aggregation"}
    ]},
    {"smiles": "O=C(O[C@@H]1Cc2c(O)cc(O)cc2O[C@@H]1c1cc(O)c(O)c(O)c1)c1cc(O)c(O)c(O)c1", "note": "[EGCG]", "values": [
      {"measurement": "inhibitory activity toward the aggregation of tau in HEK biosensor cells (number of cells with aggregates relative to DMSO)", "setting": "[1]; control compounds compared with Osimertinib, compound 2 and compound 3", "result": "much lower inhibitory activity"}
    ]}
  ]
}
